Columns and labels:
[1] = system: patients with non-ST elevation acute coronary syndrome; experiment: MERLIN-TIMI 36: arrhythmias on continuous ECG (Holter) recording, first 7 days; format: in vivo, human; settings: group allocated to ranolazine
[2] = system: patients with non-ST elevation acute coronary syndrome; experiment: MERLIN-TIMI 36: safety endpoints (death from any cause, symptomatic documented arrhythmias, CV hospitalization); format: in vivo
[3] = system: patients with NSTE-ACS who underwent PCI; experiment: MERLIN-TIMI 36 post-hoc analysis: VT, CV death and sudden cardiac death after PCI; format: in vivo, human; settings: n = 737
Description: The incidence of ventricular tachyarrhythmias after percutaneous coronary intervention (PCI) is low, but has been associated with worse clinical outcomes.
The MERLIN-TIMI 36 trial randomized 6560 pts to RAN or placebo (PLA) stratified according to whether an early invasive or conservative medical strategy was planned. The target RAN dose was 1000 mg bid and could be titrated downward at the investigator's discretion. Continuous Holter monitoring was performed for the first 7 days after randomization. Patients (RAN=737, PLA=754) with at least 2 hrs of evaluable Holter data from start of PCI or patients with at least 1 hour of evaluable Holter data if Holter was restarted within 1 hour from start of PCI were included in this post-hoc analysis. The incidence of non-sustained VT episodes (≧100 bpm lasting at least 8 beats but <30 sec) post PCI was compared using Cochran-Mantel-Haenzel test for general association, stratified by intent for early invasive strategy.

[4] = system: patients with non-ST elevation ACS; experiment: MERLIN-TIMI 36: HbA1c and hyperglycemia; format: in vivo, human
Description: The proportion of patients in the MERLIN-TIMI 36 study with HBA1C ≧7% is shown in Table 28 below (and see FIG. 15).
The proportion of patients with HBA1C ≧7% (with diabetes or no diabetes) at various times during the MERLIN-TIMI 36 study is shown in Table 29 below (and FIG. 16).
HbA1c data are reported as least-square means. Patients categorized as “diabetic” had been diagnosed as diabetic before or at the time of randomization. Patients categorized as “no diabetes” had not been diagnosed as diabetic before or at the time of randomization. Some patients characterized as “no diabetes” may have been diagnosed as “diabetic” during the trial; however, these patients are still listed in the “no diabetes” category in FIG. 4B.

[5] = system: patients with non-ST elevation acute coronary syndrome; experiment: MERLIN-TIMI 36: arrhythmias on continuous ECG (Holter) recording, first 7 days; format: in vivo, human
Description: The safety endpoint data for incidence of clinically significant arrhythmias during 7 day Holter monitoring from MERLIN-TIMI 36 is shown in Table 24 below.
Continuous ECG (Holter) recording was performed for the first 7 days after randomization. Because of the known prolongation of the QT interval with ranolazine, analyses of a prespecified set of arrhythmias were a major objective of the trial. All arrhythmias were evaluated in the TIMI ECG Core Laboratory by cardiologists blinded to treatment and outcomes.
Continuous ECG (cECG or Holter) recording was performed for the first 7 days after randomization. Prespecified arrhythmia analyses were evaluated by a core laboratory blinded to treatment and outcomes.

[6] = system: patients with non-ST elevation acute coronary syndrome; experiment: MERLIN-TIMI 36: ischemia on Holter / continuous ECG (CECG); format: in vivo, human; settings: >72 hours after randomization, ranolazine vs placebo
Description: At randomization, 6355 patients (99%) had 3-lead CECG monitoring initiated (median duration 6.9 days). The primary CECG endpoint was the rate of ST dep>1 mm from baseline lasting >1 minute with heart rate at onset <100 bpm. Exploratory analyses using ST dep>0.5 mm were also performed.

women with NSTE ACS = experiment: MERLIN-TIMI 36: outcomes in women with NSTE ACS; format: in vivo, human; settings: ranolazine vs placebo
[7] = system: patients with non-ST elevation acute coronary syndrome; experiment: MERLIN-TIMI 36: Seattle Angina Questionnaire scores at 4 months; format: in vivo, human
Description: The MERLIN-TIMI 36 secondary efficacy endpoint (ITT) Seattle Angina Questionnaire scores at 4 months for anginal frequency scale are shown in Table 16 below, and scores for physical limitation scale are shown in Table 17 below.

[8] = PCI patients, average follow-up ~1 year
[9] = within 2 hours from start of PCI
[10] = Baseline (in-hospital visit prior to randomization), all patients dosed n = 3268
[11] = Diabetes at enrollment (n = 1098), Baseline
[12] = Diabetes at enrollment (n = 1098), Final Visit
[13] = Diabetes at enrollment (n = 1098), Month 4
[14] = Diabetes at enrollment (n = 1098), Month 8
[15] = Diabetes at enrollment (n = 1098), Month 16
[16] = Final Visit, all patients dosed n = 3268
[17] = Month 4, all patients dosed n = 3268
[18] = Month 8, all patients dosed n = 3268
[19] = Month 16, all patients dosed n = 3268
[20] = No Diabetes at enrollment (n = 2170), Baseline
[21] = No Diabetes at enrollment (n = 2170), Final Visit
[22] = No Diabetes at enrollment (n = 2170), Month 4
[23] = No Diabetes at enrollment (n = 2170), Month 8
[24] = No Diabetes at enrollment (n = 2170), Month 16

**Q.** Which results are given for `COc1ccccc1OCC(O)CN1CCN(CC(=O)Nc2c(C)cccc2C)CC1` (racemic) [Ranolazine, (±)-N-(2,6-dimethylphenyl)-4-[2-hydroxy-3-(2-methoxyphenoxy)-propyl]-1-piperazineacetamide]?
**A.** Clinically reported sudden cardiac death, no. of patients [1]: 56; Death or CV hospitalization endpoint-defining events: CV hospitalization, % of pts with events ([2]; all patients dosed, n = 3268): 89.3%; Death or CV hospitalization endpoint-defining events: CV hospitalization, no. of pts ([2]; all patients dosed, n = 3268): 926; Death or CV hospitalization endpoint-defining events: Death, % of pts with events ([2]; all patients dosed, n = 3268): 10.7%; Death or CV hospitalization endpoint-defining events: Death, no. of pts ([2]; all patients dosed, n = 3268): 111; Cardiac arrest NOS, incidence ([2]; human, in vivo): 0.3%; Cardiac arrest NOS, no. of pts ([2]; human, in vivo): 10; Symptomatic documented arrhythmias - overall, incidence ([2]; human, in vivo): 3.0%; Symptomatic documented arrhythmias - overall, no. of pts ([2]; human, in vivo): 99; Symptomatic documented bradyarrhythmias, incidence ([2]; human, in vivo): 1.0%; Symptomatic documented bradyarrhythmias, no. of pts ([2]; human, in vivo): 34; Symptomatic documented supraventricular arrhythmias, incidence ([2]; human, in vivo): 1.2%; Symptomatic documented supraventricular arrhythmias, no. of pts ([2]; human, in vivo): 38; Symptomatic documented ventricular arrhythmias, incidence ([2]; human, in vivo): 0.7%; Symptomatic documented ventricular arrhythmias, no. of pts ([2]; human, in vivo): 22; HR, total mortality ([2]; ranolazine vs placebo): 0.99; CVD (cardiovascular death) - anytime, incidence [3, 8]: 0.9%; CVD (cardiovascular death) - anytime, no. of patients [3, 8]: 7; SCD (sudden cardiac death) - anytime, incidence [3, 8]: 0.1%; SCD (sudden cardiac death) - anytime, no. of patients [3, 8]: 1; CVD (cardiovascular death) - 30 days, incidence ([3]; PCI patients): 0.5%; CVD (cardiovascular death) - 30 days, no. of patients ([3]; PCI patients): 4; SCD (sudden cardiac death) - 30 days, incidence ([3]; PCI patients): 0.1%; SCD (sudden cardiac death) - 30 days, no. of patients ([3]; PCI patients): 1; VT ≧ 8 beats, % of patients with at least 1 episode [3, 9]: 1.1%; VT ≧ 8 beats, no. of patients with at least 1 episode [3, 9]: 8; Patients with HbA1C ≧7%, no. [4, 10]: 655; Proportion of patients with HbA1C ≧7% [4, 10]: 24%; Patients with HbA1C ≧7%, no. [4, 11]: 542; Proportion of patients with HbA1C ≧7% [4, 11]: 57%; Patients with HbA1C ≧7%, no. [4, 12]: 324; Proportion of patients with HbA1C ≧7% [4, 12]: 42%; Patients with HbA1C ≧7%, no. [4, 13]: 326; Proportion of patients with HbA1C ≧7% [4, 13]: 41%; Patients with HbA1C ≧7%, no. [4, 14]: 263; Proportion of patients with HbA1C ≧7% [4, 14]: 44%; Patients with HbA1C ≧7%, no. [4, 15]: 63; Proportion of patients with HbA1C ≧7% [4, 15]: 48%; Patients with HbA1C ≧7%, no. [4, 16]: 416; Proportion of patients with HbA1C ≧7% [4, 16]: 17%; Patients with HbA1C ≧7%, no. [4, 17]: 404; Proportion of patients with HbA1C ≧7% [4, 17]: 17%; Patients with HbA1C ≧7%, no. [4, 18]: 335; Proportion of patients with HbA1C ≧7% [4, 18]: 18%; Patients with HbA1C ≧7%, no. [4, 19]: 84; Proportion of patients with HbA1C ≧7% [4, 19]: 20%; Patients with HbA1C ≧7%, no. [4, 20]: 113; Proportion of patients with HbA1C ≧7% [4, 20]: 6%; Patients with HbA1C ≧7%, no. [4, 21]: 92; Proportion of patients with HbA1C ≧7% [4, 21]: 6%; Patients with HbA1C ≧7%, no. [4, 22]: 78; Proportion of patients with HbA1C ≧7% [4, 22]: 5%; Patients with HbA1C ≧7%, no. [4, 23]: 72; Proportion of patients with HbA1C ≧7% [4, 23]: 6%; Patients with HbA1C ≧7%, no. [4, 24]: 21; Proportion of patients with HbA1C ≧7% [4, 24]: 7%; Supraventricular tachycardia on cECG, no. of patients ([5]; Example 9, patients with valid cECG recording): 1413; Any clinically significant arrhythmia during 7 day Holter, incidence ([5]; all patients dosed, n = 3268): 71.3%; Any clinically significant arrhythmia during 7 day Holter, no. of pts ([5]; all patients dosed, n = 3268): 2330; Bradycardic episode during 7 day Holter, incidence ([5]; all patients dosed, n = 3268): 38.5%; Bradycardic episode during 7 day Holter, no. of pts ([5]; all patients dosed, n = 3268): 1257; New onset atrial fibrillation during 7 day Holter, incidence ([5]; all patients dosed, n = 3268): 1.7%; New onset atrial fibrillation during 7 day Holter, no. of pts ([5]; all patients dosed, n = 3268): 55; Supraventricular tachycardia (any SVT >=120 bpm) during 7 day Holter, incidence ([5]; all patients dosed, n = 3268): 43.2%; Supraventricular tachycardia (any SVT >=120 bpm) during 7 day Holter, no. of pts ([5]; all patients dosed, n = 3268): 1413; Ventricular tachycardia (any VT >= 100 bpm >=3 beats) during 7 day Holter, incidence ([5]; all patients dosed, n = 3268): 29.0%; Ventricular tachycardia (any VT >= 100 bpm >=3 beats) during 7 day Holter, no. of pts ([5]; all patients dosed, n = 3268): 948; Δ in patients with Sustained VT (>=30 sec) ([5]; placebo vs ranolazine): 0; Δ (%) Polymorphic VT >= 8 beats ([5]; ranolazine vs placebo): −21%; Δ (%) VT ≧ 3 beats (≧100 b/m) ([5]; ranolazine vs placebo): −17%; Δ (%) VT ≧ 4 beats (≧100 b/m) ([5]; ranolazine vs placebo): −30%; Δ (%) VT ≧ 8 beats (<30 sec) ([5]; ranolazine vs placebo): −37%; RR, CECG events [6]: 0.86; HR, worsening angina (women with NSTE ACS): 0.61; SAQ Physical Limitation Scale score, 25th percentile-75th percentile ([7]; N 2339): 55.6-94.4; SAQ Physical Limitation Scale score, Min-Max ([7]; N 2339): 0-100; SAQ Anginal Frequency Scale score, 25th percentile-75th percentile ([7]; N 2558): 80-100; SAQ Anginal Frequency Scale score, Median ([7]; N 2558): 100; SAQ Anginal Frequency Scale score, Min-Max ([7]; N 2558): 0-100
